Assay results from patent US8802597B2, “Herbicidal pyrimidines” (E I du Pont de Nemours and Company, priority 2003, dated 2014).
Like-named read-outs stand apart in the source and are kept apart here.

Tests used:
Assay in all cases: Test C pre/postemergence
Type in all cases: in vivo
[1] = test system: johnsongrass (Sorghum halepense); settings: Sorghum halepense; for pest or weed control at 31 g/ha: 31 g ai/ha; for pest or weed control at 62 g/ha: 62 g ai/ha; for pest or weed control at 125 g/ha: 125 g ai/ha; for pest or weed control at 250 g/ha: 250 g ai/ha
Description: (§1) Seeds or nutlets of plant species selected from bermudagrass (Cynodon dactylon), Surinam grass (Brachiaria decumbens), cocklebur (Xanthium strumarium), corn (Zea mays), crabgrass (Digitaria sanguinalis), woolly cupgrass (Eriochloa villosa), giant foxtail (Setaria faberii), goosegrass (Eleusine indica), johnsongrass (Sorghum halepense), kochia (Kochia scoparia), lambsquarters (Chenopodium album), morningglory (Ipomoea coccinea), eastern black nightshade (Solanum ptycanthum), yellow nutsedge (Cyperus esculentus), pigweed (Amaranthus retroflexus), common ragweed (Ambrosia elatior), soybean (Glycine max), common (oilseed) sunflower (Helianthus annuus), and velvetleaf (Abutilon theophrasti) were planted and treated preemergence with test chemicals formulated in a non-phytotoxic solvent mixture which included a surfactant.
(§2) At the same time, plants selected from these crop and weed species and also winter barley (Hordeum vulgare), blackgrass (Alopecurus myosuroides), canarygrass (Phalaris minor), chickweed (Stellaria media), downy brome (Bromus tectorum), green foxtail (Setaria viridis), Italian ryegrass (Lolium multiflorum), wheat (Triticum aestivum), wild oat (Avena fatua) and windgrass (Apera spica-venti) were treated with postemergence applications of some of the test chemicals formulated in the same manner. Plants ranged in height from 2 to 18 cm (1- to 4-leaf stage) for postemergence treatments. Plant species in the flooded paddy test consisted of rice (Oryza sativa), umbrella sedge (Cyperus difformis), duck salad (Heteranthera limosa) and barnyardgrass (Echinochloa crus-galli) grown to the 2-leaf stage for testing. Treated plants and controls were maintained in a greenhouse for 12 to 14 days, after which time all species were compared to controls and visually evaluated. Plant response ratings, summarized in Table C, are based on a scale of 0 to 100 where 0 is no effect and 100 is complete control. A dash (-) response means no test result.

[2] = test system: crabgrass (Digitaria sanguinalis); settings: Digitaria sanguinalis; for pest or weed control at 31 g/ha: 31 g ai/ha; for pest or weed control at 62 g/ha: 62 g ai/ha; for pest or weed control at 125 g/ha: 125 g ai/ha; for pest or weed control at 250 g/ha: 250 g ai/ha
Description: as §1, §2

[3] = test system: pigweed (Amaranthus retroflexus); settings: Amaranthus retroflexus; for pest or weed control at 31 g/ha: 31 g ai/ha; for pest or weed control at 62 g/ha: 62 g ai/ha; for pest or weed control at 125 g/ha: 125 g ai/ha; for pest or weed control at 250 g/ha: 250 g ai/ha
Description: as §1, §2

kochia (Kochia scoparia) = settings: Bassia scoparia; for pest or weed control at 31 g/ha: 31 g ai/ha; for pest or weed control at 62 g/ha: 62 g ai/ha; for pest or weed control at 125 g/ha: 125 g ai/ha; for pest or weed control at 250 g/ha: 250 g ai/ha
Description: as §1, §2

[4] = test system: cocklebur (Xanthium strumarium); settings: Xanthium strumarium; for pest or weed control at 31 g/ha: 31 g ai/ha; for pest or weed control at 62 g/ha: 62 g ai/ha; for pest or weed control at 125 g/ha: 125 g ai/ha; for pest or weed control at 250 g/ha: 250 g ai/ha
Description: as §1, §2

[5] = post-emergence, Postemergence, read-out: Plant response rating (scale of 0 to 100), Johnsongrass
[6] = post-emergence, Postemergence, scale 0 to 100 (0 no effect, 100 complete control), read-out: Johnsongrass plant response rating
[7] = post-emergence, Postemergence, scale 0 to 100, read-out: Plant response rating, Johnsongrass
[8] = pre-emergence, Preemergence, scale 0 to 100, 0 no effect, 100 complete control, read-out: Plant response rating, Johnsongrass
[9] = pre-emergence, Preemergence, scale 0 to 100, read-out: Plant response rating, Johnsongrass
[10] = post-emergence, Postemergence, read-out: Plant response rating (scale of 0 to 100), Crabgrass
[11] = post-emergence, Postemergence, scale 0 to 100 (0 no effect, 100 complete control), read-out: Crabgrass plant response rating
[12] = post-emergence, Postemergence, scale 0 to 100, read-out: Plant response rating, Crabgrass
[13] = pre-emergence, Preemergence, scale 0 to 100, 0 no effect, 100 complete control, read-out: Plant response rating, Crabgrass
[14] = pre-emergence, Preemergence, scale 0 to 100, read-out: Plant response rating, Crabgrass
[15] = post-emergence, Postemergence, read-out: Plant response rating (scale of 0 to 100), Pigweed
[16] = post-emergence, Postemergence, scale 0 to 100 (0 no effect, 100 complete control), read-out: Pigweed plant response rating
[17] = post-emergence, Postemergence, scale 0 to 100, read-out: Plant response rating, Pigweed
[18] = pre-emergence, Preemergence, scale 0 to 100, 0 no effect, 100 complete control, read-out: Plant response rating, Pigweed
[19] = pre-emergence, Preemergence, scale 0 to 100, read-out: Plant response rating, Pigweed
[20] = post-emergence, Postemergence, read-out: Plant response rating (scale of 0 to 100), Kochia
[21] = post-emergence, Postemergence, scale 0 to 100 (0 no effect, 100 complete control), read-out: Kochia plant response rating
[22] = post-emergence, Postemergence, scale 0 to 100, read-out: Plant response rating, Kochia
[23] = pre-emergence, Preemergence, scale 0 to 100, 0 no effect, 100 complete control, read-out: Plant response rating, Kochia
[24] = pre-emergence, Preemergence, scale 0 to 100, read-out: Plant response rating, Kochia
[25] = post-emergence, Postemergence, read-out: Plant response rating (scale of 0 to 100), Cocklebur
[26] = post-emergence, Postemergence, scale 0 to 100 (0 no effect, 100 complete control), read-out: Cocklebur plant response rating
[27] = post-emergence, Postemergence, scale 0 to 100, read-out: Plant response rating, Cocklebur
[28] = pre-emergence, Preemergence, scale 0 to 100, 0 no effect, 100 complete control, read-out: Plant response rating, Cocklebur
[29] = pre-emergence, Preemergence, scale 0 to 100, read-out: Plant response rating, Cocklebur

Q: Which pest or weed control at 31 g/ha [1, 5] does the source give for `COC(=O)c1nc(C2CC2)nc(N)c1Br` [Compound 2, methyl 6-amino-5-bromo-2-cyclopropyl-4-pyrimidinecarboxylate] here?
A: 0%

Q: What about the pest or weed control at 62 g/ha [1, 6] of the same molecule?
A: 0%

Q: What about the pest or weed control at 125 g/ha [1, 6] of the same molecule?
A: 25%

Q: And the pest or weed control at 250 g/ha [1, 7]?
A: 60%

Q: What about the pest or weed control at 31 g/ha [1, 8] of the same molecule?
A: 0%

Q: What about the pest or weed control at 62 g/ha [1, 8] of the same molecule?
A: 0%

Q: And the pest or weed control at 125 g/ha [1, 9]?
A: 0%

Q: What about the pest or weed control at 250 g/ha [1, 9] of the same molecule?
A: 40%

Q: What about the pest or weed control at 31 g/ha [2, 10] of the same molecule?
A: 40%

Q: What about the pest or weed control at 62 g/ha [2, 11] of the same molecule?
A: 55%

Q: What about the pest or weed control at 125 g/ha [2, 11] of the same molecule?
A: 60%

Q: And the pest or weed control at 250 g/ha [2, 12]?
A: 70%

Q: What about the pest or weed control at 31 g/ha [2, 13] of the same molecule?
A: 0%

Q: And the pest or weed control at 62 g/ha [2, 13]?
A: 0%

Q: And the pest or weed control at 125 g/ha [2, 14]?
A: 0%

Q: What about the pest or weed control at 250 g/ha [2, 14] of the same molecule?
A: 50%

Q: And the pest or weed control at 31 g/ha [3, 15]?
A: 65%

Q: And the pest or weed control at 62 g/ha [3, 16]?
A: 80%

Q: And the pest or weed control at 125 g/ha [3, 16]?
A: 95%

Q: What about the pest or weed control at 250 g/ha [3, 17] of the same molecule?
A: 100%

Q: What about the pest or weed control at 31 g/ha [3, 18] of the same molecule?
A: 90%

Q: And the pest or weed control at 62 g/ha [3, 18]?
A: 95%

Q: And the pest or weed control at 125 g/ha [3, 19]?
A: 95%

Q: What about the pest or weed control at 250 g/ha [3, 19] of the same molecule?
A: 100%

Q: And the pest or weed control at 31 g/ha (kochia (Kochia scoparia); [20])?
A: 85%

Q: What about the pest or weed control at 62 g/ha (kochia (Kochia scoparia); [21]) of the same molecule?
A: 95%

Q: What about the pest or weed control at 125 g/ha (kochia (Kochia scoparia); [21]) of the same molecule?
A: 95%

Q: And the pest or weed control at 250 g/ha (kochia (Kochia scoparia); [22])?
A: 100%

Q: And the pest or weed control at 31 g/ha (kochia (Kochia scoparia); [23])?
A: 75%

Q: What about the pest or weed control at 62 g/ha (kochia (Kochia scoparia); [23]) of the same molecule?
A: 90%

Q: What about the pest or weed control at 125 g/ha (kochia (Kochia scoparia); [24]) of the same molecule?
A: 95%

Q: And the pest or weed control at 250 g/ha (kochia (Kochia scoparia); [24])?
A: 100%

Q: And the pest or weed control at 31 g/ha [4, 25]?
A: 65%

Q: What about the pest or weed control at 62 g/ha [4, 26] of the same molecule?
A: 75%

Q: And the pest or weed control at 125 g/ha [4, 26]?
A: 85%

Q: And the pest or weed control at 250 g/ha [4, 27]?
A: 85%

Q: What about the pest or weed control at 31 g/ha [4, 28] of the same molecule?
A: 60%

Q: And the pest or weed control at 125 g/ha [4, 29]?
A: 80%

Q: What about the pest or weed control at 250 g/ha [4, 29] of the same molecule?
A: 100%

Q: How did the pest or weed control at 31 g/ha [1, 5] turn out when `COC(=O)c1nc(C(C)C)nc(N)c1Br` [Compound 3] was run?
A: 0%

Q: What about the pest or weed control at 62 g/ha [1, 6] of the same molecule?
A: 0%

Q: And the pest or weed control at 125 g/ha [1, 6]?
A: 0%

Q: And the pest or weed control at 250 g/ha [1, 7]?
A: 0%

Q: And the pest or weed control at 31 g/ha [1, 8]?
A: 0%

Q: And the pest or weed control at 62 g/ha [1, 8]?
A: 0%

Q: And the pest or weed control at 125 g/ha [1, 9]?
A: 0%

Q: And the pest or weed control at 250 g/ha [1, 9]?
A: 0%

Q: And the pest or weed control at 31 g/ha [2, 10]?
A: 0%

Q: And the pest or weed control at 62 g/ha [2, 11]?
A: 0%

Q: And the pest or weed control at 125 g/ha [2, 11]?
A: 0%

Q: What about the pest or weed control at 250 g/ha [2, 12] of the same molecule?
A: 0%

Q: And the pest or weed control at 31 g/ha [2, 13]?
A: 0%

Q: And the pest or weed control at 62 g/ha [2, 13]?
A: 0%

Q: And the pest or weed control at 125 g/ha [2, 14]?
A: 0%

Q: And the pest or weed control at 250 g/ha [2, 14]?
A: 0%

Q: What about the pest or weed control at 31 g/ha [3, 15] of the same molecule?
A: 60%

Q: What about the pest or weed control at 62 g/ha [3, 16] of the same molecule?
A: 65%

Q: What about the pest or weed control at 125 g/ha [3, 16] of the same molecule?
A: 75%

Q: What about the pest or weed control at 250 g/ha [3, 17] of the same molecule?
A: 80%

Q: What about the pest or weed control at 31 g/ha [3, 18] of the same molecule?
A: 20%

Q: And the pest or weed control at 62 g/ha [3, 18]?
A: 50%

Q: What about the pest or weed control at 125 g/ha [3, 19] of the same molecule?
A: 65%

Q: What about the pest or weed control at 250 g/ha [3, 19] of the same molecule?
A: 80%

Q: What about the pest or weed control at 31 g/ha (kochia (Kochia scoparia); [20]) of the same molecule?
A: 20%

Q: And the pest or weed control at 62 g/ha (kochia (Kochia scoparia); [21])?
A: 65%

Q: And the pest or weed control at 125 g/ha (kochia (Kochia scoparia); [21])?
A: 90%

Q: What about the pest or weed control at 250 g/ha (kochia (Kochia scoparia); [22]) of the same molecule?
A: 100%

Q: What about the pest or weed control at 31 g/ha (kochia (Kochia scoparia); [23]) of the same molecule?
A: 0%

Q: And the pest or weed control at 62 g/ha (kochia (Kochia scoparia); [23])?
A: 0%

Q: And the pest or weed control at 125 g/ha (kochia (Kochia scoparia); [24])?
A: 20%

Q: What about the pest or weed control at 250 g/ha (kochia (Kochia scoparia); [24]) of the same molecule?
A: 30%

Q: And the pest or weed control at 31 g/ha [4, 25]?
A: 60%

Q: And the pest or weed control at 62 g/ha [4, 26]?
A: 65%

Q: And the pest or weed control at 125 g/ha [4, 26]?
A: 75%

Q: What about the pest or weed control at 250 g/ha [4, 27] of the same molecule?
A: 90%

Q: What about the pest or weed control at 31 g/ha [4, 28] of the same molecule?
A: 0%

Q: And the pest or weed control at 62 g/ha [4, 28]?
A: 30%

Q: What about the pest or weed control at 125 g/ha [4, 29] of the same molecule?
A: 55%

Q: And the pest or weed control at 250 g/ha [4, 29]?
A: 70%
